Measured values from PMC11089204 (Frontiers in Pharmacology, 2024).

Experiments:
[1] = system: norepinephrine transporters (NET); design: method as in Rickli et al., 2016; conditions: ref Rickli et al., 2016; cited from earlier work
[2] = molecular target: T1, recombinant CYP2C9 (Homo sapiens, UniProt P11712); assay: Incubation with recombinant CYP2C9 enzymes; format: in vitro ADME; conditions: 1,000 nM psilocin, rec. CYP2C9
T1 construct: purchased Corning Life Sciences B.V
Description: (§1) Corning UltraPool human liver microsomes (HLM) 150 (20 mg/mL), human intestinal microsomes (HIM) pool (10 mg/mL) as well as recombinant human CYP enzymes (with P450 oxidoreductase, OR) including CYP1A2+OR (0.5 nmol), CYP2B6+OR (0.5 nmol), CYP2C8+OR (1.0 nmol), CYP2C9*1+OR (1 nmol), CYP2C19+OR (0.5 nmol), CYP2D6*1+OR (0.5 nmol), CYP2E1+OR + cytochrome b5 (1 nmol), CYP3A4+OR + cytochrome b5 (0.5 nmol), MAO-A (5 mg/mL), MAO-B (5 mg/mL), and UGT1A10 (5 mg/mL) were purchased from Corning Life Sciences B.V (Amsterdam, Netherlands). All microsomes and recombinant enzyme solutions were aliquoted and stored at −80 °C until further use.
(§2) The total volume of the reaction mixture was 500 μL. […] Samples were either directly analyzed by liquid chromatography tandem mass spectrometry (LC-MS/MS) or briefly stored at −20°C until analysis.

[3] = molecular target: T2, recombinant CYP2C19 (Homo sapiens, UniProt P33261); assay: Incubation with recombinant CYP2C19 enzymes; format: in vitro ADME; conditions: 1,000 nM psilocin, rec. CYP2C19
T2 construct: purchased Corning Life Sciences B.V
Description: as §1, §2

[4] = molecular target: T3, recombinant CYP1A2 (Homo sapiens, UniProt P05177); assay: Incubation with recombinant CYP1A2 enzymes; format: in vitro ADME; conditions: 1,000 nM psilocin, rec. CYP1A2
T3 construct: purchased Corning Life Sciences B.V
Description: as §1, §2

[5] = molecular target: T4, recombinant CYP2B6 (Homo sapiens, UniProt P20813); assay: Incubation with recombinant CYP2B6 enzymes; format: in vitro ADME; conditions: 1,000 nM psilocin, rec. CYP2B6
T4 construct: purchased Corning Life Sciences B.V
Description: as §1, §2

[6] = system: dopamine (DAT) transporter; design: method as in Rickli et al., 2016; conditions: ref Rickli et al., 2016; cited from earlier work
[7] = molecular target: T5, recombinant CYP2E1 (Homo sapiens, UniProt P05181); assay: Incubation with recombinant CYP2E1 enzymes; format: in vitro ADME; conditions: 1,000 nM psilocin, rec. CYP2E1
T5 construct: purchased Corning Life Sciences B.V
Description: as §1, §2

T4 sequence (P20813 whole entry): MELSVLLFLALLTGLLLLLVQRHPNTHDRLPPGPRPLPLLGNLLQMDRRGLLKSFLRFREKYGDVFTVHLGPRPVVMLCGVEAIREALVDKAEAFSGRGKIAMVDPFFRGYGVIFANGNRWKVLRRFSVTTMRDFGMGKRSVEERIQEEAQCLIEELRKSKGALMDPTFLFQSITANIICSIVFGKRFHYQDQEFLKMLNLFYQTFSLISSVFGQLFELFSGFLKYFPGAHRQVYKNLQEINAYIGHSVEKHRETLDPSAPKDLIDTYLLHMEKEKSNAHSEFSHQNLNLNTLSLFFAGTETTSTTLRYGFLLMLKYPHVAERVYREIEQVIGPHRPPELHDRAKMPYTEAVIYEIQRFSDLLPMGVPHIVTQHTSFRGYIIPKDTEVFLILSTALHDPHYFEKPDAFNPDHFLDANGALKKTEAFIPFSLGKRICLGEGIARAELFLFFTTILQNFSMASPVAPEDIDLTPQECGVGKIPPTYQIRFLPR
T3 sequence (P05177 2-516 limits assumed): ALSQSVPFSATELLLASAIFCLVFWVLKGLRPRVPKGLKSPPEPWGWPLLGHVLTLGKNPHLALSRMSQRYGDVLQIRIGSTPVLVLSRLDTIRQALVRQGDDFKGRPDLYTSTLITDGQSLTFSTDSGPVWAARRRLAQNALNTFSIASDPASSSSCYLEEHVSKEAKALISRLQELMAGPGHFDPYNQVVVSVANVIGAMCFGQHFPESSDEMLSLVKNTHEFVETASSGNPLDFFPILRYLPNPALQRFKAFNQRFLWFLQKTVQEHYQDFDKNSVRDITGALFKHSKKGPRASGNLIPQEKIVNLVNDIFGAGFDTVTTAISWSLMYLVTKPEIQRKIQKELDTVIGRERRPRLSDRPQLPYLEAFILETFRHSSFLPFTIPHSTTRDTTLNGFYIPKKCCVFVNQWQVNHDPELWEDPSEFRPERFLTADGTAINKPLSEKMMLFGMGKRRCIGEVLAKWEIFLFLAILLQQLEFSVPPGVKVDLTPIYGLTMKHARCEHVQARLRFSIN
T2 sequence (P33261 whole entry): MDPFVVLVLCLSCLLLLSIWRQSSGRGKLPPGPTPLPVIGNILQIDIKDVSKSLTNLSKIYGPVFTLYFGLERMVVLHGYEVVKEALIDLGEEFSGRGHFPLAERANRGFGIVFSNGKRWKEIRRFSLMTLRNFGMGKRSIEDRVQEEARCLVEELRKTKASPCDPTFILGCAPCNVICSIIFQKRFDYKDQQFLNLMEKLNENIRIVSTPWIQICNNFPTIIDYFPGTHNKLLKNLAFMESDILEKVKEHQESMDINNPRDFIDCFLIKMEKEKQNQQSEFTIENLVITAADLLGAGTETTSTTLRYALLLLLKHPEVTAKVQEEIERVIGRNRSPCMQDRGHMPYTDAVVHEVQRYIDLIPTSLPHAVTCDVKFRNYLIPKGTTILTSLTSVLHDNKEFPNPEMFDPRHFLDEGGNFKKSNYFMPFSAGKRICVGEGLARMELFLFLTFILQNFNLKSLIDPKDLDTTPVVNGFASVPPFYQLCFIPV
T1 sequence (P11712 whole entry): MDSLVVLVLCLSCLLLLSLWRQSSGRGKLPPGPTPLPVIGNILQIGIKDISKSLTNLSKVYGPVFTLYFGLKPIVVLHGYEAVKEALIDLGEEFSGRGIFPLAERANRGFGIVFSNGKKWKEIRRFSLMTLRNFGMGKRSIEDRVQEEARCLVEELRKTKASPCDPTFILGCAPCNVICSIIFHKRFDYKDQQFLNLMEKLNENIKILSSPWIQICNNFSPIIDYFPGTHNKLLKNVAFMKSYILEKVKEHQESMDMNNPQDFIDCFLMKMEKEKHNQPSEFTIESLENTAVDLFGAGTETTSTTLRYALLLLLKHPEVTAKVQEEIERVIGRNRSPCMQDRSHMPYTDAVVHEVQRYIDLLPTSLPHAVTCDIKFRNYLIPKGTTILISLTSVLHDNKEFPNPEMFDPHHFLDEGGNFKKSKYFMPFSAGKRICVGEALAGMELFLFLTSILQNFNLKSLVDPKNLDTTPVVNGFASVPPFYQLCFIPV
T5 sequence (P05181 whole entry): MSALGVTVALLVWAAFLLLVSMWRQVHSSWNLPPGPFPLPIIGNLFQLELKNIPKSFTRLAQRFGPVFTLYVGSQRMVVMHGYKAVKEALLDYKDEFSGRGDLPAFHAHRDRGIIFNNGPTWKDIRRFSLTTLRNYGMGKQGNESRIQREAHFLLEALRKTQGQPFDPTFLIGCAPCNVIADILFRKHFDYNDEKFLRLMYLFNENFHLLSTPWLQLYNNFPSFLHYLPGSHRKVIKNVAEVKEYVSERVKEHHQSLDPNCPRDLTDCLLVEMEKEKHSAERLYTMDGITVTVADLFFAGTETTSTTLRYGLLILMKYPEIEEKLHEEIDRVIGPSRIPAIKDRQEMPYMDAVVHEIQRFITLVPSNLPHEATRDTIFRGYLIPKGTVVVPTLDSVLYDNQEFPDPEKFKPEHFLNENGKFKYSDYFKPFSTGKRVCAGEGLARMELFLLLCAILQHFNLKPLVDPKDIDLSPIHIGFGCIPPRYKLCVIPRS

CN(C)CCc1c[nH]c2cccc(O)c12 [psilocin, 4-hydroxy-N,N-dimethyltryptamine]
not: inhibition of NET [1] | inhibition of DAT [6]
did not metabolize: metabolism of psilocin [2] | metabolism of psilocin [3] | metabolism of psilocin [4] | metabolism of psilocin [5] | metabolism of psilocin [7]
